# Laboratory results from patent publication US8404651B2, “Compositions and methods for treating viral infections” (priority 2008, dated 2013).
# Where “and” joins values, the source holds several entries; their conditions need not be identical. Equal values may be shown once.
# Experiments:
# [1] = system: bacterial strains TA1535, TA1537, TA98, TA100, WP2 uvrA; experiment: In vitro bacterial mutagenicity assay, overall conclusions for all strains
# Description: (§1) Dispense 100 microliter aliquots of the appropriate bacterial cultures into sample tubes stored on ice. Dispense aliquots of the vehicle, positive controls or dose formulations into the appropriate sample tubes. 2 mL top Agar and HBT cap was added to the sample tube, inverted three times and poured into MG plate. The lid was replaced on the plate and left on a level surface to let the agar harden. The plates were incubated in an incubator for 48 to 72 h. The background lawn and count the number of revertants was checked for each plate.
# WP2 uvrA = experiment: In vitro bacterial mutagenicity assay (pre-incubation), strain WP2 uvrA; conditions: for Number of revertants x1, x2, x3: individual plates
# Description: as §1
# [2] = MTT cytotoxicity assay, Vero; format: cell-based; conditions: African green monkey, Vero cells, 24-hour incubation
# Description: (§2) Cellular cytotoxicity profile of the compounds was carried out against a panel of cell lines. Standard MTT assays were performed in 96-well plates using the Promega CellTiter96 Non-radioactive Cell Proliferation Assay Kit in conjunction with a 96-well Plate Reader (ThermoMax, Molecular devices), and MDBK, Vero, and HFF cell lines (obtained from ATCC). Several controls were employed including the nucleoside analogs 3TC, AZT, and ddC, as well as, media without drugs. SDS was used as a positive cytotoxic control. The compounds were tested in triplicate at concentrations of 100, 300, and 1000 μM. Following a 24-hour incubation of cells with the test substance, the MTT assay was carried out.
# [3] = In vitro cytotoxicity, HepG2; format: cell-based; conditions: human, HepG2 cells
# TA1537 = experiment: In vitro bacterial mutagenicity assay (pre-incubation), strain TA1537; conditions: for Number of revertants x1, x2, x3: individual plates
# Description: as §1
# TA100 = experiment: In vitro bacterial mutagenicity assay (pre-incubation), strain TA100; conditions: for Number of revertants x1, x2, x3: individual plates
# Description: as §1
# [4] = MTT cytotoxicity assay, HFF; format: cell-based; conditions: human, HFF cells, 24-hour incubation
# Description: as §2
# TA1535 = experiment: In vitro bacterial mutagenicity assay (pre-incubation), strain TA1535; conditions: for Number of revertants x1, x2, x3: individual plates
# Description: as §1
# [5] = TA1537, absence of S9, 50 μg/plate
# [6] = TA1537, absence of S9, 158 μg/plate
# [7] = TA1537, absence of S9, 500 μg/plate
# [8] = TA1537, absence of S9, 1581 μg/plate
# [9] = TA1537, absence of S9, 5000 μg/plate
# [10] = TA1537, presence of S9, 50 μg/plate
# [11] = TA1537, presence of S9, 158 μg/plate
# [12] = TA1537, presence of S9, 500 μg/plate
# [13] = TA1537, presence of S9, 1581 μg/plate
# [14] = TA1537, presence of S9, 5000 μg/plate
# [15] = TA100, absence of S9, 50 μg/plate
# [16] = TA100, absence of S9, 158 μg/plate
# [17] = TA100, absence of S9, 500 μg/plate
# [18] = TA100, absence of S9, 1581 μg/plate
# [19] = TA100, absence of S9, 5000 μg/plate
# [20] = TA100, presence of S9, 50 μg/plate
# [21] = TA100, presence of S9, 158 μg/plate
# [22] = TA100, presence of S9, 500 μg/plate
# [23] = TA100, presence of S9, 1581 μg/plate
# [24] = TA100, presence of S9, 5000 μg/plate
# [25] = TA1535, absence of S9, 50 μg/plate
# [26] = TA1535, absence of S9, 158 μg/plate
# [27] = TA1535, absence of S9, 500 μg/plate
# [28] = TA1535, absence of S9, 1581 μg/plate
# [29] = TA1535, absence of S9, 5000 μg/plate
# [30] = TA1535, presence of S9, 50 μg/plate
# [31] = TA1535, presence of S9, 158 μg/plate
# [32] = TA1535, presence of S9, 500 μg/plate
# [33] = TA1535, presence of S9, 1581 μg/plate
# [34] = TA1535, presence of S9, 5000 μg/plate
smiles,measurement,setting,value
"COC1C(OP(=O)(OC[C@H]2O[C@@H](n3cnc4c(N)ncnc43)CC2O)SCOC(=O)OC(C)C)[C@@H](CO)O[C@H]1n1ccc(=O)[nH]c1=O (some centres unmarked) [Compound 2, S-isopropylcarbonyloxymethyl thiophosphate (6k) of 3′dApsU2′OMe]",increases in the revertant colony counts,"[1]; any strain, absence or presence of S9 mix",No substantial increases in the revertant colony counts
same,precipitation in the bacterial mutation test,"[1]; formulated in DMSO, up to 5000 μg/plate",No precipitation was observed
same,toxicity to the bacteria (thinning of the background lawn of non-revertant bacteria),[1]; up to 5000 μg/plate,non-toxic to the bacteria at the levels tested
same,Number of revertants mean,"WP2 uvrA; absence of S9, 50 μg/plate",41
same,"Number of revertants x1, x2, x3","WP2 uvrA; absence of S9, 50 μg/plate",34 and 43 and 45
same,Number of revertants mean,"WP2 uvrA; absence of S9, 158 μg/plate",42
same,"Number of revertants x1, x2, x3","WP2 uvrA; absence of S9, 158 μg/plate",49 and 44 and 33
same,Number of revertants mean,"WP2 uvrA; absence of S9, 500 μg/plate",34
same,"Number of revertants x1, x2, x3","WP2 uvrA; absence of S9, 500 μg/plate",39 and 26 and 38
same,Number of revertants mean,"WP2 uvrA; absence of S9, 1581 μg/plate",50
same,"Number of revertants x1, x2, x3","WP2 uvrA; absence of S9, 1581 μg/plate",44 and 56 and 51
same,Number of revertants mean,"WP2 uvrA; absence of S9, 5000 μg/plate",52
same,"Number of revertants x1, x2, x3","WP2 uvrA; absence of S9, 5000 μg/plate",62 and 39 and 54
same,Number of revertants mean,"WP2 uvrA; presence of S9, 50 μg/plate",44
same,"Number of revertants x1, x2, x3","WP2 uvrA; presence of S9, 50 μg/plate",48 and 43 and 42
same,Number of revertants mean,"WP2 uvrA; presence of S9, 158 μg/plate",43
same,"Number of revertants x1, x2, x3","WP2 uvrA; presence of S9, 158 μg/plate",46 and 43 and 40
same,Number of revertants mean,"WP2 uvrA; presence of S9, 500 μg/plate",41
same,"Number of revertants x1, x2, x3","WP2 uvrA; presence of S9, 500 μg/plate",36 and 46 and 40
same,Number of revertants mean,"WP2 uvrA; presence of S9, 1581 μg/plate",47
same,"Number of revertants x1, x2, x3","WP2 uvrA; presence of S9, 1581 μg/plate",52 and 43 and 45
same,Number of revertants mean,"WP2 uvrA; presence of S9, 5000 μg/plate",62
same,"Number of revertants x1, x2, x3","WP2 uvrA; presence of S9, 5000 μg/plate",61 and 60 and 65
same,CC50 at 24 h,[2],> 1000 µM
same,CC50,[3],> 100 µM
same,Number of revertants mean,TA1537; [5],11
same,"Number of revertants x1, x2, x3",TA1537; [5],8 and 17 and 9
same,Number of revertants mean,TA1537; [6],12
same,"Number of revertants x1, x2, x3",TA1537; [6],9 and 8 and 19
same,Number of revertants mean,TA1537; [7],10
same,"Number of revertants x1, x2, x3",TA1537; [7],15 and 6 and 10
same,Number of revertants mean,TA1537; [8],15
same,"Number of revertants x1, x2, x3",TA1537; [8],17 and 15 and 13
same,Number of revertants mean,TA1537; [9],11
same,"Number of revertants x1, x2, x3",TA1537; [9],15 and 9 and 8
same,Number of revertants mean,TA1537; [10],17
same,"Number of revertants x1, x2, x3",TA1537; [10],20 and 17 and 15
same,Number of revertants mean,TA1537; [11],18
same,"Number of revertants x1, x2, x3",TA1537; [11],16 and 18 and 21
same,Number of revertants mean,TA1537; [12],17
same,"Number of revertants x1, x2, x3",TA1537; [12],25 and 12 and 15
same,Number of revertants mean,TA1537; [13],15
same,"Number of revertants x1, x2, x3",TA1537; [13],18 and 15 and 13
same,Number of revertants mean,TA1537; [14],12
same,"Number of revertants x1, x2, x3",TA1537; [14],11 and 15 and 10
same,Number of revertants mean,TA100; [15],112
same,"Number of revertants x1, x2, x3",TA100; [15],98 and 112 and 127
same,Number of revertants mean,TA100; [16],121
same,"Number of revertants x1, x2, x3",TA100; [16],110 and 133 and 119
same,Number of revertants mean,TA100; [17],133
same,"Number of revertants x1, x2, x3",TA100; [17],134 and 127 and 138
same,Number of revertants mean,TA100; [18],113
same,"Number of revertants x1, x2, x3",TA100; [18],122 and 107 and 109
same,Number of revertants mean,TA100; [19],115
same,"Number of revertants x1, x2, x3",TA100; [19],98 and 126 and 122
same,Number of revertants mean,TA100; [20],107
same,"Number of revertants x1, x2, x3",TA100; [20],111 and 109 and 100
same,Number of revertants mean,TA100; [21],120
same,"Number of revertants x1, x2, x3",TA100; [21],115 and 133 and 111
same,Number of revertants mean,TA100; [22],126
same,"Number of revertants x1, x2, x3",TA100; [22],134 and 137 and 108
same,Number of revertants mean,TA100; [23],126
same,"Number of revertants x1, x2, x3",TA100; [23],136 and 122 and 121
same,Number of revertants mean,TA100; [24],126
same,"Number of revertants x1, x2, x3",TA100; [24],122 and 130 and 126
same,CC50 at 24 h,[4],> 1000 µM
same,Number of revertants mean,TA1535; [25],14
same,"Number of revertants x1, x2, x3",TA1535; [25],10 and 15 and 16
same,Number of revertants mean,TA1535; [26],23
same,"Number of revertants x1, x2, x3",TA1535; [26],21 (2×) and 26
same,Number of revertants mean,TA1535; [27],17
same,"Number of revertants x1, x2, x3",TA1535; [27],15 and 20 and 17
same,Number of revertants mean,TA1535; [28],16
same,"Number of revertants x1, x2, x3",TA1535; [28],13 and 18 and 17
same,Number of revertants mean,TA1535; [29],18
same,"Number of revertants x1, x2, x3",TA1535; [29],18 (2×) and 17
same,Number of revertants mean,TA1535; [30],19
same,"Number of revertants x1, x2, x3",TA1535; [30],21 and 15 and 20
same,Number of revertants mean,TA1535; [31],16
same,"Number of revertants x1, x2, x3",TA1535; [31],11 and 20 and 16
same,Number of revertants mean,TA1535; [32],17
same,"Number of revertants x1, x2, x3",TA1535; [32],19 and 13 and 20
same,Number of revertants mean,TA1535; [33],22
same,"Number of revertants x1, x2, x3",TA1535; [33],27 and 21 and 17
same,Number of revertants mean,TA1535; [34],17
same,"Number of revertants x1, x2, x3",TA1535; [34],18 and 16 (2×)
